# US7964399B2, “Cell line comprising vector encoding truncated FLK-1 receptor” (Max-Planck-Gesellschaft zur Forderung der Wissenschaften …, priority 1992, dated 2011)
# “Also recorded” adds a separate entry of the source.
# B1: unlabeled VEGF (164 amino acid form), partially purified from conditioned media of COS-1 cells transiently expressing VEGF (ligand, UniProt Q00731-2 27-190, looked up)
# chain: APTTEGEQKSHEVIKFMDVYQRSYCRPIETLVDIFQEYPDEIEYIFKPSCVPLMRCAGCCNDEALECVPTSESNITMQIMRIKPHQSQHIGEMSFLQHSRCECRPKKDRTKPENHCEPCSERRKHLFVQDPQTCKCSCKNTDSRCKARQLELNERTCRCDKPRR
# notes: Partially purified on heparin columns; also called unlabeled ligand
# B2: ^125I-labeled recombinant human VEGF (ligand, UniProt P15692-4 27-191, looked up)
# chain: APMAEGGGQNHHEVVKFMDVYQRSYCHPIETLVDIFQEYPDEIEYIFKPSCVPLMRCGGCCNDEGLECVPTEESNITMQIMRIKPHQGQHIGEMSFLQHNKCECRPKKDRARQENPCGPCSERRKHLFVQDPQTCKCSCKNTDSRCKARQLELNERTCRCDKPRR
# modifications: radioiodinated (^125I) by the procedure of Hunter and Greenwood; positions not given
# notes: also called iodinated VEGF
# Tests used:
# Flk-1 [1] = molecular target: T1, Flk-1 (Mus musculus, UniProt P35918, P25T); test: Cellular Flk-1 assay: VEGF-stimulated Flk-1 receptor autophosphorylation, antiphosphotyrosine Western blot; format: cell-based; parameters: expressed in transfected cells; host or cells: NIH 3T3 (3T3 Flk-1 cell line); conditions: test concentration 100 μM, FIG. 17, NIH3T3 cells expressing Flk-1
# Experimental: FIG. 17. Inhibition of VEGF stipulatory activity of Flk-1. Test compounds and VEGF were co-incubated on cells expressing the Flk-1 receptor. The level of tyrosine phosphorylation was measured in a Western blot format using an antiphosphotyrosine antibody. […] (Compounds A7, A8, and A10 were toxic to these cells resulting in cell death.).
# Organic compounds that modulate Flk-1 receptor mediated signal transduction can be assayed in a cellular Flk-1 assay wherein modulation of Flk-1 receptor autophosphorylation is measured using an antiphosphotyrosine antibody. In the example shown below, the results are analyzed using a Western blot of electrophoresed cell lysates. Levels of phosphorylation as be measured by other techniques known in the art.
# NIH3T3 cells expressing high levels of Flk-1 were seeded in 12-well plates at 250,000 cells/well in DMEM+0.5% calf serum and incubated overnight at 37° C. plus or minus the test substance. […]
# For the Western blot assay, forty microliters of saved supernatant per lane were loaded onto a 7.5% SDS-PAGE gel (10 lanes/gel, 1.5 mm thick) and run at 120 V until the dye reached the bottom of the gel. […] Protein bands were detected by soaking the membrane in ECL chemiluminescence system (Amersham Corp., prepared by mixing equal volumes of reagent 1 and 2) for 1 minute and then exposing the film for about 1-10 minutes.
# Flk-1 [2] = molecular target: T1, Flk-1; test: 125I-VEGF competition binding to COS-1 cells transiently expressing Flk-1; parameters: the full-length Flk-1 cDNA was cloned into the mammalian expression vector PCMV; expressed in transfected cells; host or cells: COS-1 (transient, CMV-promoter vector); conditions: for competition with binding of 125I-VEGF: Flk-1 transfected COS-1 cells
# Flk-1 [3] = molecular target: T1, Flk-1; test: VEGF-induced autophosphorylation of Flk-1 in COS cells; format: cell-based; parameters: expressed in transfected cells; dose or concentration left out as unconfirmed; conditions: COS1 cells transiently expressing Flk-1, stimulated with VEGF
# Flk-1 [4] = molecular target: T1, Flk-1; test: [3H]thymidine incorporation (mitogenic response) in Flk-1-expressing NIH 3T3 cells; format: cell-based; parameters: the full-length Flk-1 cDNA was cloned into the mammalian expression vector PCMV; expressed in transfected cells; conditions: 3T3 Flk-1 cell line
# Excerpt: The dominant-negative potential of Flk-1 TM was first examined by measuring its influence on the mitogenic response of Flk-1-expressing NIH 3T3 cells after superinfection with the Flk-1 TM virus.
# [5] = molecular target: murine Flk-1 receptor (fetal liver kinase 1), full length, wild type, 180 kD (mouse) (UniProt P35918); test: cell-based or functional assay
# [6] = molecular target: T2, murine Flk-1 receptor (fetal liver kinase 1), full length, wild type, 180 kD (mouse, UniProt P35918 20-1345); test: competition binding of unlabeled VEGF against 10 pM ^125I-VEGF on COS-1 cells expressing Flk-1, analysis by Munson and Rodbard
# T2 construct: Full-length Flk-1 cDNA in pCMV, transiently expressed in COS-1 cells; also stably expressed in NIH 3T3 cells; also called Flk-1 RTK; wild type Flk-1
# Experimental: FIGS. 9A and 9B. Flk-1 is a receptor for VEGF. […] The cells were lysed, Flk-1 receptor immunoprecipitated, and analyzed by polyacrylamide gel electrophoresis followed by autoradiography. Molecular size markers are indicated in kilodaltons. […] COS cells transiently expressing Flk-1 were removed from the plate and resuspended in binding medium (DMEM, 25 mM Hepes, 0.15% gelatin). […] The cells were washed twice with PBS/0.1% BSA and counted in a gamma counter.
# Ligand binding experiments were performed as described previously (Schumacher, R. et al., 1991, J. Biol. Chem. 266: 19288-19295), COS-1 cells were grown in a 15-cm culture dish in DMEM for 48 h after transfection. Cells were then washed carefully with PBS and incubated with 5 ml of 25 mM EDTA in PBS for 10 min. Cells were then removed from the plate, washed once with binding buffer (DMEM, 25 mM HEPES, pH 7.5, 0.15% gelatin) and resuspended in 5 ml of binding buffer to determine the cell number. […] Data obtained were analyzed by the method of Munson, P. J. and Rodbard, D. (1980 Anal. Biochem. 107:220-235).
# [7] = molecular target: T3, Flk-1 TM, truncated transdominant-negative Flk-1 receptor mutant (amino acids 1 through 806), 130 kD (mouse, UniProt P35918 20-806); test: ^125I-VEGF binding to 3T3 Flk-1/Flk-1 TM cells against the parental 3T3 Flk-1 cells
# T3 construct: Lacks the 561 C-terminal amino acids of the intracellular kinase domain; keeps the transmembrane domain and 23 residues of the cytoplasmic domain; A BglII/HpaI linker with a stop codon (5' GTC ATG GAT CTT CGT TAA 3') may add or change a few C-terminal residues; Expressed in cells (COS, NIH 3T3); also called truncated Flk-1 receptor; pLXSN Flk-1 TM cl.1
# T3 sequence (P35918 other isoform, or with tags, fused parts or gaps mutant): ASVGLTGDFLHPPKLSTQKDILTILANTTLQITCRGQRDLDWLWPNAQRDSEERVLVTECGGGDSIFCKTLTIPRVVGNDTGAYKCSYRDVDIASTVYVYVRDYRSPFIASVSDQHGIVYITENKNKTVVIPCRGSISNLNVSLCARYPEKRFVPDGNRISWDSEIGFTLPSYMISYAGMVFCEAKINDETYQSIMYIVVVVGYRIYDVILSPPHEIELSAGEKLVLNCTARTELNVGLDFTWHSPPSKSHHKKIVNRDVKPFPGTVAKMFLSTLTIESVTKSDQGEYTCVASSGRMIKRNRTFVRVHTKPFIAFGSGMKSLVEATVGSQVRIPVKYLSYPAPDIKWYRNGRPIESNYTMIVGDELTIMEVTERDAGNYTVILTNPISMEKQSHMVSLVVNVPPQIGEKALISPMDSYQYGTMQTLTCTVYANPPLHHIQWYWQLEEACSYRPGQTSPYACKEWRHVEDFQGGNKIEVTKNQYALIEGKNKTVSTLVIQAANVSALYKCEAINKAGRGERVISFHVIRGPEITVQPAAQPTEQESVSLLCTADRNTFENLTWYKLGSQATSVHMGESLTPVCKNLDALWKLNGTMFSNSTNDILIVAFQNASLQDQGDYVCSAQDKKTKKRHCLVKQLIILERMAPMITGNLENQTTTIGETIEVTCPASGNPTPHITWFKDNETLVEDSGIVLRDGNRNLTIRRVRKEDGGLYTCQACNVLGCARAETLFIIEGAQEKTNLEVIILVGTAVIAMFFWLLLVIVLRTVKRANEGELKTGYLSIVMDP
# T1 sequence (P35918 with tags, fused parts or gaps P25T limits assumed): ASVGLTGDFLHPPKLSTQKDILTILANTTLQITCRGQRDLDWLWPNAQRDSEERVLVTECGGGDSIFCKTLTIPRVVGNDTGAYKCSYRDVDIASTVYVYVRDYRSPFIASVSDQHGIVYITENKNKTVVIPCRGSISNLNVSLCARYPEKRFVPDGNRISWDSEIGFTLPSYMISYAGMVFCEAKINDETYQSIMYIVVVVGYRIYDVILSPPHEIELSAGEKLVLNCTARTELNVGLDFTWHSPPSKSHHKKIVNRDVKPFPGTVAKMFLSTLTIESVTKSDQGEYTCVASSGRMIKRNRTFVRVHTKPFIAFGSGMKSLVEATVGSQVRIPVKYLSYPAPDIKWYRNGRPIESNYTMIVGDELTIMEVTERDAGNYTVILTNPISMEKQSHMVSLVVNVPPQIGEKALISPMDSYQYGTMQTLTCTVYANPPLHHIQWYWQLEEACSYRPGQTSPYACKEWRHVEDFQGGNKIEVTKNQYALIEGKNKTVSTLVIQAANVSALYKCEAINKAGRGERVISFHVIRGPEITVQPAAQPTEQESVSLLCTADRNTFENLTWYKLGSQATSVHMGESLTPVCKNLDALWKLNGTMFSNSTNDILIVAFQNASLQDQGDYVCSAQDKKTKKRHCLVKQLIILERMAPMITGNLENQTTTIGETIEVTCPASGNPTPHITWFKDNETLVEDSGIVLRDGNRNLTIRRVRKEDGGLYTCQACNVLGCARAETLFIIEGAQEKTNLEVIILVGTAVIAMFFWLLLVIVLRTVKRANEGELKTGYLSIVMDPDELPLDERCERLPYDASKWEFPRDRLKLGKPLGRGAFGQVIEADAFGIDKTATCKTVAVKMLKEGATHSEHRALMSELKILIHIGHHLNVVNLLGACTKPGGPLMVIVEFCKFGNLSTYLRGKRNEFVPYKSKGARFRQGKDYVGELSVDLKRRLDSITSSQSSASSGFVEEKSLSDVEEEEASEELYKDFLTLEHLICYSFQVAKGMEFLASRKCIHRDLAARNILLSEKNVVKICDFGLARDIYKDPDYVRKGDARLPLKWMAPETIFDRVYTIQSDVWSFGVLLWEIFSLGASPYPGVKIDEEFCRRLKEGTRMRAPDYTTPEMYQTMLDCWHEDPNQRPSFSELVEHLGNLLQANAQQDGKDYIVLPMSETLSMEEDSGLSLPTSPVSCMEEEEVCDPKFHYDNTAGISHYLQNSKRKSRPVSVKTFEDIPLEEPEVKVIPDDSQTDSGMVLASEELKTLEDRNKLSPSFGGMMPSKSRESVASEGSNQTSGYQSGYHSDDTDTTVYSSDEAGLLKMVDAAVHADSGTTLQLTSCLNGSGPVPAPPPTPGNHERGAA
# murine Flk-1 receptor (fetal liver kinase 1), full length, wild type, 180 kD (mouse), sequence (P35918 other isoform, or with tags, fused parts or gaps limits assumed): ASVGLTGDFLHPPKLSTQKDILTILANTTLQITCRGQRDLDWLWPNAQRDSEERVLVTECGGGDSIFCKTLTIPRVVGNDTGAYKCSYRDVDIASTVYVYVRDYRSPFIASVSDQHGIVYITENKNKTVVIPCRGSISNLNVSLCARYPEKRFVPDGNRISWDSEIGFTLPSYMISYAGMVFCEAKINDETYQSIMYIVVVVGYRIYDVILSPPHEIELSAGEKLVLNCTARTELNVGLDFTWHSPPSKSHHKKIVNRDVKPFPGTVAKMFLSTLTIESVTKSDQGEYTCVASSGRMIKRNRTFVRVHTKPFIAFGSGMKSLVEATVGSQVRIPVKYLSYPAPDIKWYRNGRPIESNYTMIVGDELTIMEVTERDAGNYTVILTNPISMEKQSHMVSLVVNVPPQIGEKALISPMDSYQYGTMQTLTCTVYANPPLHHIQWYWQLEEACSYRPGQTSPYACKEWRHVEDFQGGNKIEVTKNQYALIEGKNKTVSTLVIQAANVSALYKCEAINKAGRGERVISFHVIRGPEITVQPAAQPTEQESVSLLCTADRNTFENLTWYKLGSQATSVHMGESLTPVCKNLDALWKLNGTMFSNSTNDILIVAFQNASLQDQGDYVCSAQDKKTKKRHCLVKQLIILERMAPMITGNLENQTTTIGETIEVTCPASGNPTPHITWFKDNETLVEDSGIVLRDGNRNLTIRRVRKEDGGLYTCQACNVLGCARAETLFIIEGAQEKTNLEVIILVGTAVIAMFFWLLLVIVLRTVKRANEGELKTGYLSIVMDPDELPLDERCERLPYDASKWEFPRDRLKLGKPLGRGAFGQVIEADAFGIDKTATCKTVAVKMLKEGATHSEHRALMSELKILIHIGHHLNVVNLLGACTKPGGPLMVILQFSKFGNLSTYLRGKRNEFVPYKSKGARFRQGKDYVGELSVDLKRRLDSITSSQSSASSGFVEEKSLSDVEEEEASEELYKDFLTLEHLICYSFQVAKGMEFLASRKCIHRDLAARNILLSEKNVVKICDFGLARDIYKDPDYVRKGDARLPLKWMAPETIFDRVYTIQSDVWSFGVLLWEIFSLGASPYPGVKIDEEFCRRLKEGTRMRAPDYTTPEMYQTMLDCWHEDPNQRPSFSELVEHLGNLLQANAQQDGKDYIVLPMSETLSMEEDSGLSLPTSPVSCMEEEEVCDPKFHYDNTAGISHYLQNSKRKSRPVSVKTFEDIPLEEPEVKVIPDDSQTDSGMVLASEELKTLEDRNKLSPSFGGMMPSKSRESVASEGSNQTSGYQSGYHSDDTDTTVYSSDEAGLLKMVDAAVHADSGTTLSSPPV
# T2 sequence (P35918 other isoform, or with tags, fused parts or gaps limits assumed): as above
molecule,measurement,setting,value
c1ccc(-c2cnc3cc4ccccc4cc3n2)cc1 [Compound A14],inhibition of VEGF-stimulated Flk-1 receptor phosphorylation,Flk-1 [1],almost completely; also recorded: completely inhibited
PDGF-BB: growth factor used as specificity control in 125I-VEGF competition binding [reference compound],competition with binding of 125I-VEGF,Flk-1 [2],did not compete
vascular endothelial growth factor [VEGF],tyrosine phosphorylation of the 180 kD Flk-1 receptor,Flk-1 [3],significant induction
same,Kd,"Flk-1 [2]; Flk-1 expressing COS-1 cells, 125I-VEGF, 15° C., 90 min",~0.1 nM
same,competition with binding of 125I-VEGF,Flk-1 [2],competed
same,EC50,Flk-1 [4],~0.1 nM
same,concentration giving maximal stimulation of [3H] thymidine incorporation,Flk-1 [4],500 pM
VEGF (preparation not specified) used for stimulation of cells (ligand),"[^3H] thymidine incorporation in the 3T3 Flk-1 cell line, EC50",[5],0.1 nM
same,"[^3H] thymidine incorporation in the 3T3 Flk-1 cell line, concentration of maximal stimulation",[5],500 pM
B1,Kd,[6],~0.1 nM
B2,fold increase of cell surface receptors against the parental 3T3 Flk-1 line,[7],6 fold
